“Also recorded” adds a separate entry of the source. Where a name gives a salt, the structure may show the parent alone.

The first test deals with Nrf2-dependent ARE transcriptional activity. Put plainly: ARE-luc luciferase reporter gene assay in HepG2 cells (qHTS). It counts as cell-based. On the set-up: Emax: reference not given here.
Settings: not given
Regarding `O=Nc1ccc(Nc2ccccc2)cc1` [p-Nitrosodiphenylamine], the “ARE-luc Efficacy” value came to 71.
For `O=C(O)C1C(C(=O)O)C2(Cl)C(Cl)=C(Cl)C1(Cl)C2(Cl)Cl` (stereo not drawn) [Chlorendic acid], the “ARE-luc EC50” value was “inactive”.
As to `[Cd+2].[Cl-].[Cl-]` [Cadmium II chloride], the “ARE-luc Efficacy” value came out at 446.
Turning to `c1ccc2c(c1)-c1cccc3cccc-2c13` [Fluoranthene], the “ARE-luc EC50” value is “inactive”.

Staying with this test, now noted: Homo sapiens, HepG2, 16 h, read-out: ARE-luc EC50.
As to `Nc1ccccc1O` [o-Aminophenol], the EC50 was 26.2 ± 3.3 µM.
The same measure, in the same setting: the value for `CN(C)c1ccc(N=O)cc1` [N,N-Dimethyl-p-nitrosoaniline] was 29.2 ± 2 µM.

The test is the same for the next values; noted with them: Homo sapiens, HepG2, confirmation/follow-up studies; activation of ARE reporter as % of positive control (β-napthoflavone); read-out: ARE-luc Efficacy.
As to `CCOCN(C(=O)CCl)c1c(C)cccc1CC` [Acetochlor], the Emax came out at 78%.
For the molecule `Cc1ccc(O)c(N)c1` [2-Amino-4-methylphenol], the Emax amounted to 90%.
On to `Nc1cc(Cl)ccc1O` [2-Amino-4-chlorophenol], for which the Emax stood at 175%.
For `COc1cc(/C=C/C(=O)CC(=O)/C=C/c2ccc(O)c(OC)c2)ccc1O` [Curcumin], the Emax came out at 165%.
With `CNc1ccc(O)cc1` [N-Methyl-p-aminophenol sulfate], the Emax was 202%.
For `O=[N+]([O-])c1cc(Cl)c(Cl)c(Cl)c1Cl` [2,3,4,5-Tetrachloronitrobenzene], the Emax came to 124%.

Staying with this test, now noted: Homo sapiens, HepG2, read-out: ARE-luc Efficacy.
For the molecule `Nc1ccccc1O` [o-Aminophenol], the Emax is 234%.
On the same count and under the same terms, the value for `CN(C)c1ccc(N=O)cc1` [N,N-Dimethyl-p-nitrosoaniline] was 626%.

The same test, now with this note: Homo sapiens, HepG2; confirmation/follow-up studies; […]; read-out: ARE-luc Efficacy.
Take `CN(C)c1ccc(N)cc1` [N,N-Dimethyl-p-phenylenediamine]: the Emax stood at 24%.

The test is the same for the next values; noted with them: Homo sapiens; confirmation/follow-up studies, HepG2, 16 hr exposure, mean ± SD; read-out: ARE-luc EC50.
For `CN(C)c1ccc(N)cc1` [N,N-Dimethyl-p-phenylenediamine], the EC50 is 11.8 ± 4.4 µM.
For `CCOCN(C(=O)CCl)c1c(C)cccc1CC` [Acetochlor], the EC50 was found to be 21.9 ± 5.3 µM.
On the same count and under the same terms, the value for `Cc1ccc(O)c(N)c1` [2-Amino-4-methylphenol] was 24 ± 7.1 µM; that for `Nc1cc(Cl)ccc1O` [2-Amino-4-chlorophenol] was 6.3 ± 2.1 µM.
As for `COc1cc(/C=C/C(=O)CC(=O)/C=C/c2ccc(O)c(OC)c2)ccc1O` [Curcumin], the EC50 was 10.8 ± 0.7 µM.
With `CNc1ccc(O)cc1` [N-Methyl-p-aminophenol sulfate], the EC50 is 24.6 ± 9.2 µM.
Still for that read-out and setting: to `O=[N+]([O-])c1cc(Cl)c(Cl)c(Cl)c1Cl` [2,3,4,5-Tetrachloronitrobenzene] belongs 27.7 ± 6.7 µM.

Still in this test, the particulars now being: follow-up studies, up to 46 µM.
As to `CCOCN(C(=O)CCl)c1c(C)cccc1CC` [Acetochlor], the “activity in ARE-luc assay (words)” value is “active; also recorded: demonstrated activity”.

The test is the same for the next values; noted with them: primary qHTS screening, 0.59 nM to 92 µM.
In the case of `CCOCN(C(=O)CCl)c1c(C)cccc1CC` [Acetochlor], the “activity in ARE-luc assay (words)” value is recorded as “high-quality active”.
On to `COc1cc(/C=C/C(=O)CC(=O)/C=C/c2ccc(O)c(OC)c2)ccc1O` [Curcumin], for which the “activity in ARE-luc assay (words)” value was “high-quality active”.

The test is the same for the next values; noted with them: read-out: ARE-luc EC50.
As to `O=Nc1ccc(Nc2ccccc2)cc1` [p-Nitrosodiphenylamine], the concentration giving a half-maximal response (EC50) came to 21.7 ± 3.7 µM.
`[Cd+2].[Cl-].[Cl-]` [Cadmium II chloride]: the EC50 was found to be 1.1 ± 0.1 µM.

The test system of the next test is antioxidant response element (ARE) signaling pathway. Put plainly: ARE-bla β-lactamase reporter gene assay in HepG2 cells (qHTS). It is filed as cell-based, human.
Settings: not given
For `O=Nc1ccc(Nc2ccccc2)cc1` [p-Nitrosodiphenylamine], the “ARE-bla Efficacy” value amounted to 31.
In the case of `O=C(O)C1C(C(=O)O)C2(Cl)C(Cl)=C(Cl)C1(Cl)C2(Cl)Cl` (stereo not drawn) [Chlorendic acid], the “ARE-bla EC50” value was “inactive”.
In the case of `[Cd+2].[Cl-].[Cl-]` [Cadmium II chloride], the “ARE-bla EC50” value is “inactive”.
Consider `c1ccc2c(c1)-c1cccc3cccc-2c13` [Fluoranthene], for which the “ARE-bla EC50” value is “inactive”.

Still in this test, the particulars now being: Homo sapiens, HepG2, 16 h, read-out: ARE-bla EC50.
Turning to `Nc1ccccc1O` [o-Aminophenol], the EC50 turned out to be 6.8 ± 4.1 µM.
Same read-out and setting: to `CN(C)c1ccc(N=O)cc1` [N,N-Dimethyl-p-nitrosoaniline] belongs 9.9 ± 3.4 µM.

Still in this test, the particulars now being: Homo sapiens, HepG2, confirmation/follow-up studies; activation of ARE reporter as % of positive control (β-napthoflavone); read-out: ARE-bla Efficacy.
As for `CCOCN(C(=O)CCl)c1c(C)cccc1CC` [Acetochlor], the Emax was found to be 86%.
`Cc1ccc(O)c(N)c1` [2-Amino-4-methylphenol]: the Emax is 76%.
`COc1cc(/C=C/C(=O)CC(=O)/C=C/c2ccc(O)c(OC)c2)ccc1O` [Curcumin]: the Emax worked out at 21%.
With `CNc1ccc(O)cc1` [N-Methyl-p-aminophenol sulfate], the Emax worked out at 37%.
On the same count and under the same terms, to `O=[N+]([O-])c1cc(Cl)c(Cl)c(Cl)c1Cl` [2,3,4,5-Tetrachloronitrobenzene] belongs 56%.

Staying with this test, now noted: Homo sapiens, HepG2, read-out: ARE-bla Efficacy.
On to `Nc1ccccc1O` [o-Aminophenol], for which the Emax amounted to 95%.
Still for that read-out and setting: to `CN(C)c1ccc(N=O)cc1` [N,N-Dimethyl-p-nitrosoaniline] belongs 82%.

The test is the same for the next values; noted with them: Homo sapiens, HepG2; confirmation/follow-up studies; […]; read-out: ARE-bla Efficacy.
Take `CN(C)c1ccc(N)cc1` [N,N-Dimethyl-p-phenylenediamine]: the Emax worked out at 80%.
Regarding `Nc1cc(Cl)ccc1O` [2-Amino-4-chlorophenol], the Emax is 72%.

Still in this test, the particulars now being: Homo sapiens; confirmation/follow-up studies, HepG2, 16 hr exposure, mean ± SD; read-out: ARE-bla EC50.
Take `CN(C)c1ccc(N)cc1` [N,N-Dimethyl-p-phenylenediamine]: the EC50 worked out at 9.6 ± 0.6 µM.
As to `CCOCN(C(=O)CCl)c1c(C)cccc1CC` [Acetochlor], the EC50 is 4.7 ± 1.6 µM.
With `Cc1ccc(O)c(N)c1` [2-Amino-4-methylphenol], the EC50 came out at 12 ± 4.8 µM.
Same read-out and setting: the value for `Nc1cc(Cl)ccc1O` [2-Amino-4-chlorophenol] was 7 ± 1.8 µM; that for `COc1cc(/C=C/C(=O)CC(=O)/C=C/c2ccc(O)c(OC)c2)ccc1O` [Curcumin] was 3.2 ± 3.2 µM; that for `CNc1ccc(O)cc1` [N-Methyl-p-aminophenol sulfate] was 13.6 ± 3.2 µM.
As to `O=[N+]([O-])c1cc(Cl)c(Cl)c(Cl)c1Cl` [2,3,4,5-Tetrachloronitrobenzene], the EC50 was found to be 9.4 ± 3.2 µM.

The same test, now with this note: follow-up studies, up to 46 µM.
For the molecule `CCOCN(C(=O)CCl)c1c(C)cccc1CC` [Acetochlor], the “activity in ARE-bla assay (words)” value is recorded as “active; also recorded: demonstrated activity”.

The same test, now with this note: primary qHTS screening, 0.59 nM to 92 µM.
As for `CCOCN(C(=O)CCl)c1c(C)cccc1CC` [Acetochlor], the “activity in ARE-bla assay (words)” value was “high-quality active”.
As for `COc1cc(/C=C/C(=O)CC(=O)/C=C/c2ccc(O)c(OC)c2)ccc1O` [Curcumin], the “activity in ARE-bla assay (words)” value is “high-quality active”.

Staying with this test, now noted: read-out: ARE-bla EC50.
`O=Nc1ccc(Nc2ccccc2)cc1` [p-Nitrosodiphenylamine]: the half-maximal effective concentration (EC50) was determined as 9.7 ± 4.1 µM.

The subject of a further test is mutated ARE.
Test: not given
It counts as cell-based.
Settings: not given
Consider `O=Nc1ccc(Nc2ccccc2)cc1` [p-Nitrosodiphenylamine], for which the “ARE-bla mutant IC50” value was “inactive”.
`O=C(O)C1C(C(=O)O)C2(Cl)C(Cl)=C(Cl)C1(Cl)C2(Cl)Cl` (stereo not drawn) [Chlorendic acid]: the “ARE-bla mutant IC50” value is “inactive”.
Regarding `[Cd+2].[Cl-].[Cl-]` [Cadmium II chloride], the “ARE-bla mutant IC50” value is “inactive”.
Turning to `Nc1ccccc1O` [o-Aminophenol], the “ARE-bla mutant IC50” value is “inactive”.
`c1ccc2c(c1)-c1cccc3cccc-2c13` [Fluoranthene]: the “ARE-bla mutant IC50” value was “inactive”.
Same read-out and setting: to `CNc1ccc(O)cc1` [N-Methyl-p-aminophenol sulfate] belongs “inactive”; to `CN(C)c1ccc(N=O)cc1` [N,N-Dimethyl-p-nitrosoaniline], “inactive”.

The test is the same for the next values; noted with them: confirmation/follow-up studies, HepG2, mean ± SD.
`CN(C)c1ccc(N)cc1` [N,N-Dimethyl-p-phenylenediamine]: the “ARE-bla mutant IC50” value was “inactive”.
As to `CCOCN(C(=O)CCl)c1c(C)cccc1CC` [Acetochlor], the “ARE-bla mutant IC50” value was “inactive”.
Still for that read-out and setting: the value for `Cc1ccc(O)c(N)c1` [2-Amino-4-methylphenol] was “inactive”.
On to `Nc1cc(Cl)ccc1O` [2-Amino-4-chlorophenol], for which the “ARE-bla mutant IC50” value is “inactive”.
`COc1cc(/C=C/C(=O)CC(=O)/C=C/c2ccc(O)c(OC)c2)ccc1O` [Curcumin]: the “ARE-bla mutant IC50” value was “inactive”.
Take `O=[N+]([O-])c1cc(Cl)c(Cl)c(Cl)c1Cl` [2,3,4,5-Tetrachloronitrobenzene]: the “ARE-bla mutant IC50” value was “inactive”.
